Source: patent publication US20230406843A1, “Progranulin Modulators and Methods of Using the Same” (ARKUDA THERAPEUTICS, priority 2020, published 2023)
Like-named read-outs stand apart in the source and are kept apart here.

Test system: progranulin
Assay: Progranulin induction cellular assay (ELISA of secreted mouse PGRN)
Assay type: cell-based
Description: Cellular Assays: Progranulin induction assay. To measure the efficacy of compounds, a progranulin induction cellular assay in mouse primary microglia (pMG), primary cortical neurons, and BV-2 cell lines is used. BV-2 cells are split the day before plating into a 96 well plate format at approximately 80%. Cells should be plated the day before and allowed for 1 hour attachment period and for 16 hour incubation. Levels of progranulin secreted into the cell culture medium or retained in the cell lysate can be quantified using an ELISA-based readout and measurement of secreted mouse PGRN in the medium was assessed by the methodology published by Ghidoni et al. 2012. Standard ELISA kits to measure PGRN are available from vendors such as Adipogen, R&D, and Biovendor.
Table B below presents the results of a progranulin induction assay as described above.

[1] = progranulin induction assay, mouse pMG, primary cortical neurons and BV-2 cell lines named, cell type not given, ELISA-based readout, read-out: EC50
[2] = Mus musculus, BV-2, read-out: EC50 μM

Compound | EC50 [1] [µM] | EC50 [2] [µM]
O=C([C@H]1C[C@@H]2NCCN[C@H]2CO1)N1CCc2ccccc2[C@@H]1c1ccc(F)cc1 [Compound 5461, ((S)-1-(4-fluorophenyl)-3,4-dihydroisoquinolin-2(1H)-yl)((4aR,7R,8aS)-octahydro-2H-pyrano[3,4-b]pyrazin-7-yl)methanone] | 0.01 | 
CCN[C@H]1C[C@H](C(=O)N2CCc3ccccc3[C@@H]2c2ccc(F)cc2)OC[C@@H]1OCC [Compound 5510, ((2R,4S,5R)-5-ethoxy-4-(ethylamino)tetrahydro-2H-pyran-2-yl)((S)-1-(4-fluorophenyl)-3,4-dihydroisoquinolin-2(1H)-yl)methanone] | 0.002 | 
CCCO[C@H]1CO[C@@H](C(=O)N2CCc3ccccc3[C@@H]2c2ccc(F)cc2)C[C@@H]1N [Compound 5502, ((2R,4S,5R)-4-amino-5-propoxytetrahydro-2H-pyran-2-yl)((S)-1-(4-fluorophenyl)-3,4-dihydroisoquinolin-2(1H)-yl)methanone] | 0.001 | 
CO[C@H]1C[C@H](C(=O)N2CCc3ccccc3[C@@H]2c2ccc(F)cc2F)OC[C@H]1N [Compound 5259] | 0.046 | 
CO[C@H]1CO[C@@H](C(=O)N2CCc3ccccc3[C@@H]2c2ccc(F)cc2)C[C@@H]1NCCO [Compound 5568] | 0.025 | 
C[C@@H]1CO[C@@H](C(=O)N2CCc3ccccc3[C@@H]2c2ccc(F)cc2)C[C@@H]1N [Compound 5519, ((2R,4S,5S)-4-amino-5-methyltetrahydro-2H-pyran-2-yl)((S)-1-(4-fluorophenyl)-3,4-dihydroisoquinolin-2(1H)-yl)methanone] | 0.041 | 
O=C([C@H]1C[C@@](O)(CNCCO)CO1)N1CCc2ccccc2[C@@H]1c1ccc(F)cc1 (single isomer, unassigned) [Compound 5040] | 0.173 | 
C[C@@]1(C(=O)N2CCc3ccccc3[C@@H]2c2ccc(F)cc2)C[C@@H](N)CCO1 (single isomer, unassigned) [Compound 5238] | 0.105 | 
NC[C@]1(O)COC(C(=O)N2CCc3ccccc3[C@@H]2c2ccc(F)cc2)C1 (single isomer, unassigned) [Compound 5005] | 0.216 | 
CCCN1CCN[C@H]2C[C@H](C(=O)N3CCc4ccccc4[C@@H]3c3ccc(F)cc3)OC[C@@H]21 [Compound 5600] | 0.021 | 
O=C([C@H]1OCCN[C@@H]1CF)N1CCc2ccccc2[C@@H]1c1ccc(F)cc1 [Compound 5501] | 3.86 | 
CCN[C@H]1C[C@H](C(=O)N2CCc3ccccc3[C@@H]2c2ccc(F)cc2)OC[C@@H]1O [Compound 5587] | 0.194 | 
N[C@@H]1CC[C@H](C(=O)N2CCc3ccccc3[C@@H]2c2ccc(F)cc2F)OC1 [Compound 5207] | 0.182 | 
O=C([C@@H]1C[C@](O)(CNCCO)CO1)N1CCc2ccccc2[C@@H]1c1ccc(F)cc1 (single isomer, unassigned) [Compound 5039] | 0.357 | 
C[C@@H]1C[C@@H](C(=O)N2CCc3ccccc3[C@@H]2c2ccc(F)cc2)OC[C@@H]1N [Compound 5084, ((2S,4R,5R)-5-amino-4-methyltetrahydro-2H-pyran-2-yl)((S)-1-(4-fluorophenyl)-3,4-dihydroisoquinolin-2(1H)-yl)methanone] | 0.18 | 
N[C@@H]1CO[C@@H](C(=O)N2CCc3ccccc3[C@@H]2c2ccc(F)cc2F)C[C@@H]1O [Compound 5258] | 0.062 | 
COC[C@]1(N)CC[C@H](C(=O)N2CCc3ccccc3[C@@H]2c2ccc(F)cc2)OC1 [Compound 5219, ((2R,5R)-5-amino-5-(methoxymethyl)tetrahydro-2H-pyran-2-yl)((S)-1-(4-fluorophenyl)-3,4-dihydroisoquinolin-2(1H)-yl)methanone] |  | 0.006
COC[C@@H]1CN[C@H]2C[C@H](C(=O)N3CCc4ccccc4[C@@H]3c3ccc(F)cc3)OC[C@@H]2O1 [Compound 5566] | > 0.3 | 
N[C@@H]1CO[C@@H](C(=O)N2CCc3ccccc3[C@@H]2c2ccc(F)cc2)C[C@@H]1F [Compound 5064, ((2R,4S,5R)-5-amino-4-fluorotetrahydro-2H-pyran-2-yl)((S)-1-(4-fluorophenyl)-3,4-dihydroisoquinolin-2(1H)-yl)methanone] | 0.102 | 
CN[C@H]1C[C@H](C(=O)N2CCc3ccccc3[C@@H]2c2ccc(F)cc2)OC[C@@H]1O [Compound 5586] | 0.219 | 

Compound | EC50 [1] [µM] | EC50 [2] [µM]
N[C@H]1COC(C(=O)N2CCc3ccccc3[C@@H]2c2ccc(F)cc2)C1 (stereo in doubt) [Compound 5012, ((2R,4R)-4-aminotetrahydrofuran-2-yl)((S)-1-(4-fluorophenyl)-3,4-dihydroisoquinolin-2(1H)-yl)methanone] | 0.125 | 
CS(=O)(=O)N[C@@H]1CO[C@@H](C(=O)N2CCc3ccccc3[C@@H]2c2ccc(F)cc2)C[C@@H]1N [Compound 5428, N-((3S,4S,6R)-4-amino-6-((S)-1-(4-fluorophenyl)-1,2,3,4-tetrahydroisoquinoline-2-carbonyl)tetrahydro-2H-pyran-3-yl)methanesulfonamide] | > 10 | 
NCC1(O)CCO[C@@H](C(=O)N2CCc3ccccc3[C@@H]2c2ccc(F)cc2)C1 (stereo in doubt) [Compound 5540, ((2R,4R)-4-(aminomethyl)-4-hydroxytetrahydro-2H-pyran-2-yl)((S)-1-(4-fluorophenyl)-3,4-dihydroisoquinolin-2(1H)-yl)methanone] | 0.21 | 
NCC1COC(C(=O)N2CCc3ccccc3[C@@H]2c2ccc(F)cc2)C1 (stereo in doubt) [Compound 5009, ((2S,4R)-4-(aminomethyl)tetrahydrofuran-2-yl)((S)-1-(4-fluorophenyl)-3,4-dihydroisoquinolin-2(1H)-yl)methanone] | 0.37 | 
N[C@H]1C[C@H](C(=O)N2CCc3ccccc3[C@@H]2c2ccc(F)cc2)OC[C@@H]1OCC(F)(F)F [Compound 5475, ((2R,4S,5R)-4-amino-5-(2,2,2-trifluoroethoxy)tetrahydro-2H-pyran-2-yl)((S)-1-(4-fluorophenyl)-3,4-dihydroisoquinolin-2(1H)-yl)methanone] | 0.001 | 
O=C([C@@H]1OCCNC[C@@H]1O)N1CCc2ccccc2[C@@H]1c1ccc(F)cc1 [Compound 5243, ((S)-1-(4-fluorophenyl)-3,4-dihydroisoquinolin-2(1H)-yl)((6S,7R)-6-hydroxy-1,4-oxazepan-7-yl)methanone] | 0.2 | 
O=C([C@H]1C[C@@H]2NCCS[C@H]2CO1)N1CCc2ccccc2[C@@H]1c1ccc(F)cc1 (single isomer, unassigned) [Compound 5534] | 0.015 | 
CC[N-][S@@+2](C)([O-])[C@H]1CO[C@@H](C(=O)N2CCc3ccccc3[C@@H]2c2ccc(F)cc2)C[C@@H]1N (single isomer, unassigned) [Compound 5557] | 0.523 | 
CC(=O)N[C@H]1CO[C@@H](C(=O)N2CCc3ccccc3[C@@H]2c2ccc(F)cc2)C[C@@H]1N [Compound 5512, N-((3R,4S,6R)-4-amino-6-((S)-1-(4-fluorophenyl)-1,2,3,4-tetrahydroisoquinoline-2-carbonyl)tetrahydro-2H-pyran-3-yl)acetamide] |  | 0.005
CO[C@H]1C[C@H](C(=O)N2CCc3ccccc3[C@@H]2c2ccc(F)cc2)OC[C@H]1N (single isomer, unassigned) [Compound 5082] | 0.044 | 
NC[C@H]1CC[C@H](C(=O)N2CCc3ccccc3[C@@H]2c2ccc(F)cc2)O1 [Compound 5002, ((2R,5R)-5-(aminomethyl)tetrahydrofuran-2-yl)((S)-1-(4-fluorophenyl)-3,4-dihydroisoquinolin-2(1H)-yl)methanone] | 0.278 | 
O=C([C@@H]1CCNCCO1)N1CCc2ccccc2[C@@H]1c1ccc(F)cc1 (single isomer, unassigned) [Compound 5045] | 0.078 | 
O=C([C@H]1C[C@](O)(CNCCO)CO1)N1CCc2ccccc2[C@@H]1c1ccc(F)cc1 [Compound 5041, ((S)-1-(4-fluorophenyl)-3,4-dihydroisoquinolin-2(1H)-yl)((2R,4S)-4-hydroxy-4-(((2-hydroxyethyl)amino)methyl)tetrahydrofuran-2-yl)methanone] | 0.294 | 
CO[C@H]1CO[C@@H](C(=O)N2CCc3ccccc3[C@@H]2c2ccc(F)cc2)C[C@@H]1NCC(F)(F)F [Compound 5577] | > 0.3 | 
O=C([C@@H]1OCCNC[C@@H]1F)N1CCc2ccccc2[C@@H]1c1ccc(F)cc1 (single isomer, unassigned) [Compound 5418] | 0.352 | 
N[C@H]1CO[C@@H](C(=O)N2CCc3ccccc3[C@@H]2c2ccc(F)cc2)OC1 [Compound 5049, (cis-5-amino-1,3-dioxan-2-yl)((S)-1-(4-fluorophenyl)-3,4-dihydroisoquinolin-2(1H)-yl)methanone] | 0.258 | 
N[C@H]1C[C@H](C(=O)N2CCc3ccccc3[C@@H]2c2ccc(F)cc2)OC[C@@H]1F [Compound 5069, ((2R,4S,5R)-4-amino-5-fluorotetrahydro-2H-pyran-2-yl)((S)-1-(4-fluorophenyl)-3,4-dihydroisoquinolin-2(1H)-yl)methanone] | 0.142 | 
COCCN[C@H]1CC[C@@H](C(=O)N2CCc3ccccc3[C@@H]2c2ccc(F)cc2)OC1 [Compound 5029, ((S)-1-(4-fluorophenyl)-3,4-dihydroisoquinolin-2(1H)-yl)((2S,5S)-5-((2-methoxyethyl)amino)tetrahydro-2H-pyran-2-yl)methanone] | 0.37 | 
N[C@@H]1CO[C@@H](C(=O)N2CCc3ccccc3[C@@H]2c2ccc(F)cc2)C[C@@H]1O [Compound 5052, ((2R,4S,5R)-5-amino-4-hydroxytetrahydro-2H-pyran-2-yl)((S)-1-(4-fluorophenyl)-3,4-dihydroisoquinolin-2(1H)-yl)methanone] | 0.018 | 
N[C@@H]1CC[C@H](C(=O)N2CCc3ccccc3[C@@H]2c2ccc(F)cc2)OC1 (single isomer, unassigned) [Compound 5017] | 0.091 | 
